Assay type in all cases: in vivo
The test system of experiment [1] is Meloidogyne incognita (RKNi). Briefly: Pot trial: foliar spray in cotton against root-knot nematodes. The note with it: for performance in comparison to prior art tetramic acid compound spirotetramat: foliar 100 g/ha. The source says:
POT TRIALS: Foliar spray in Cotton against nematodes Meloidogyne incognita (RKNi) using
12 1-L Clay pots were used per treatment. Cotton: Fibre Max 966 seeds were planted into pots and allowed to germinate and grow into young plants. The pots were artificially infested with nematodes (RKNi) 2 days after treatment.
APPLICATION: Compounds A and B and comparison Spirotetramat were sprayed as a normal foliar spray with hollow cone nozzles directed onto the plants. The compounds A, B and spirotetramat used were formulated as a suspension concentrate formulation at a dose rate of 100 g/ha. The compounds were diluted to a spray volume of approx […], which was used on the young plants. The treatment was applied when the plants had at least 2 true leaves.
Industry comparison Abamectin as a seed treatment was also included in the trials as a comparison. AVICTA® 500 FS from Syngenta AG was used at a rate of 500 g/L as a flowable concentrate (FS) formulation and applied to the seeds as a slurry to provide a rate of 0.15 mg of active ingredient per seed.
ASSESSMENT: Plants were removed 2 days after foliar spray treatment to assess penetration of the nematode in the roots with a dyeing method. Root galling/cysts were assessed according to standard practice.

In experiment [2] the test system is Heterodera schachtii Schmidt (SBCN). The experiment is described as follows: Pot trial: seed treatment and foliar spray in sugar beets, tuber weight. Particulars: sugar beet, n = 8-10, harvest after 4 months. The source says:
POT TRIALS: Seed treatments and Foliar spray in sugar beets (Beta Vulgaris cv Impulse) against root nematodes Heterodera schachtii Schmidt (SBCN) (origin Münster, Germany)
15 7-L pots were used per treatment containing 7-L soil with an organic matter content of 2% (drench soil+sand). Seeds were planted into pot soil 1 cm deep and allowed to germinate and grow into young plants in a polytunnel. During the winter months, the pots were placed in a greenhouse. The pots were artificially infested with nematodes (SBCN) when preparing the soil for each pot and just before planting.
APPLICATION: Compounds A and comparison Spirotetramat were sprayed as a normal foliar spray with hollow cone nozzles directed onto the plants. The compounds A and Spirotetramat used were formulated as a suspension concentrate formulation at a dose rate of 100 g/ha. The first foliar spray was applied 14 days after sowing. A second foliar spray was carried out 3 weeks later.
Abamectin was used as a seed treatment. AVICTA® 500 FS from Syngenta AG was used at a rate of 500 g/L as a flowable concentrate (FS) formulation and applied to the seeds as a slurry to provide a rate of 0.6 mg of active ingredient per seed.
ASSESSMENT: Sugar beet plants were harvested after 4 months according to the prevailing temperatures and weather conditions. Sugar beet tuber weights were assessed according to standard practice.

The test system is the same in experiment [3]. Briefly: Pot trial: seed treatment and foliar spray in sugar beets, cysts per root system. The note with it: sugar beet, 25 days after inoculation. How it is done: POT TRIALS: Seed treatments and Foliar spray in sugar beets (Beta Vulgaris cv Impulse) against root nematodes Heterodera schachtii Schmidt (SBCN)
8×350 ml pots were used per treatment containing 350 ml soil (70% drench soil and 30% sand). 1 Seed per pot were planted into pot soil 0.5 cm deep and allowed to germinate and grow into young plants. Plants were kept under constant conditions of 25° C. during the day and 23° C. during the night with a humidity of 50-60% with 14 hour light periods. The pots were artificially infested with nematodes (SBCN) 7 days after sowing. For inoculation, 3 holes are drilled into the soil and 2 ml suspension of the nematodes per hole are applied.
APPLICATION: Compounds B and comparison Spirotetramat were sprayed as a normal foliar spray with hollow cone nozzles directed onto the plants. The compounds B and Spirotetramat used were formulated as a suspension concentrate formulation at a dose rate of 100 g/ha. The first foliar spray was applied 14 days after sowing (i.e. 7 days after inoculation). A second foliar spray was carried out 21 days after sowing (i.e. 14 days after inoculation).
Abamectin was used as a seed treatment. AVICTA® 400 FS from Syngenta AG was used at a rate of 400 g/L as a flowable concentrate (FS) formulation and applied to the seeds as a slurry to provide a rate of 0.6 mg and 1 mg of active ingredient per seed.
ASSESSMENT: Sugar beet plants were harvested 25 days after inoculation. Sugar beet root and shoot weights were assessed according to standard practice. Number of cysts per root system and as a function of root weight were assessed.

Setting [4] is: foliar 100 g/ha at BBCH 14, artificial infestation 2 days after foliar spray.
The mark [5] stands for this setting: foliar 100 g/ha, first application +14 days after sowing.
The mark [6] stands for this setting: seed treatment 0.15 mg/seed at BBCH 00, artificial infestation at crop stage BBCH 14.

Regarding `CCOC(=O)OC1=C(c2c(C)cc(Cl)cc2C)C(=O)NC12CCN(OC)CC2` [Compound A], in experiment [1], the “performance in comparison to prior art tetramic acid compound spirotetramat” value is “outperformed spirotetramat”. For the same compound, in experiment [1] (setting [4]), the “% root length in cm compared to check (= 100%)” value (“% root length in cm” for short) turned out to be 204% and the “Number of root galls per plant” value was determined as 1. Further, the “Mean tuber weight relative to inoculated check (%), Observed %” value in experiment [2] (setting [5]) is 17.0%.
On to `CCOC(=O)OC1=C(c2c(C)cc(Cl)cc2C)C(=O)N(C)C12CCN(OC)CC2` [Compound B], for which the “Efficacy in % of cyst nematodes per root system” value (from here on “Efficacy in % … per root system”) in experiment [3] (Compound B 100 g/ha foliar) is listed as 12%. Further, the “performance in comparison to prior art tetramic acid compound spirotetramat” value in experiment [1] is given as “outperformed spirotetramat”. In experiment [1] (setting [4]), the “% root length in cm” value is reported as 213% and the “Number of root galls per plant” value was determined as 0.33.
As to `CCOC(=O)OC1=C(c2cc(C)ccc2C)C(=O)N[C@]12CC[C@@H](OC)CC2` [Spirotetramat], in experiment [1] (setting [4]), the “% root length in cm” value turned out to be 100% and the “Number of root galls per plant” value is listed as 5.83. In experiment [2] (setting [5]), the “Mean tuber weight relative to inoculated check (%), Observed %” value is reported as 30.0%.
Turning to Abamectin, in experiment [3] (Abamectin 0.6 mg/seed seed treatment), the “Efficacy in % … per root system” value turned out to be 42%. In addition, the “Efficacy in % … per root system” value in experiment [3] (Abamectin 1 mg/seed seed treatment) turned out to be 60%. For the same compound, in experiment [1] (setting [6]), the “% root length in cm” value worked out at 211% and the “Number of root galls per plant” value stood at 0.33. Also, the “Mean tuber weight relative to inoculated check (%), Observed %” value in experiment [2] (seed treatment 0.6 mg/seed at sowing) turned out to be 6.4%.
